Data set [1] can be described thus: Pharmacokinetics of DON in swine plasma and CSF after i.v. infusion of DON, compound 14b or compound 47. Type of data set: in vivo. The following applies: for CSF-to-plasma ratio of DON: 60 min post-administration; for amount of DON delivered to the CSF relative to DON: CSF at 60 min post-dose. The procedure: Compound: Compound 47 was dissolved in a sterile saline containing 5% ethanol and 5% Tween 80 on the date of administration.
Swine: Swine studies were conducted under a protocol approved by the Johns Hopkins Animal Care and Use Committee. Adult, female Gottingen×Yucutan miniature swine (Massachusetts General Hospital, MA) were housed in Johns Hopkins University facilities accredited by the Association for Assessment and Accreditation of Laboratory Animal Care International in compliance with the Animal Welfare Act, Animal Welfare Regulations, and the Public Health Service Policy on the Humane Care and Use of Laboratory Animals. Animals were maintained on a 14-h light and 10-h dark schedule, provided ad libitum water and a commercial miniswine diet (Teklad, Madison, Wis.) with environmental enrichment (fruit/vegetables) twice daily.

Data set [2] in a line: In vitro plasma stability, mouse plasma. The data set is classed as in vitro ADME, mice.
Data set [3] in a line: In vitro plasma stability, dog plasma. The data set is classed as in vitro ADME.
A short description of data set [4]: In vitro plasma stability, human plasma. Type of data set: in vitro ADME.
The nature of data set [5]: In vitro plasma stability, monkey plasma. Type of data set: in vitro ADME, monkeys.
Data set [6] can be described thus: In vitro plasma stability, pig plasma. The data set is classed as in vitro ADME.
Data set [7] relates to CD4+ and CD8+ T cells. The data set is described as follows: IFN-γ secretion of anti-CD3 stimulated splenocytes (ELISA). The data set is classed as cell-based, C57BL/6 mice. The following applies: anti-CD3, 24 h; DON 5 μM; 2-DG 0.6 mM; Metformin 1 mM. For orientation: An ELISA detects its analyte on a solid surface through an enzyme-linked reagent.
The subject of data set [8] is CD4+ T cells. The data set is described as follows: Extracellular flux analysis (ECAR, OCR) of CD4+ T cells stimulated with anti-CD3/CD28. Type of data set: cell-based, 5C.C7 mice. The following applies: 2-DG 10 mM; Metformin 50 mM; DON 30 μM; after anti-CD3/CD28. The protocol: Extracellular flux analysis: Cells were initially plated to XF assay medium, modified DMEM (Seahorse Bioscience) containing 25 mM glucose, 2 mM L-glutamine, and 1 mM sodium pyruvate, and incubated in a non-CO2 incubator at 37° C. for 30 minutes. OCR and ECAR were measured at 37° C. in a XF96 Extracellular Flux Analyzer (Seahorse Bioscience) using manufacturer recommended protocols. After baseline measurements, OCR and ECAR were measured after sequentially adding anti-CD3/CD28 and metabolic reprogramming agents into each well to the indicated final concentrations using the included ports on the XF96 cartridges. All data were collected using the XF Reader software from Seahorse Bioscience.
OCR is an indicator of mitochondrial OXPHOS, and ECAR is predominantly a measure of lactic acid formed during glycolytic energy metabolism, and thus reflects overall glycolytic flux. Primary, naïve 5C.C7 CD4^+ T cells were incubated with pigeon cytochrome c (PCC) peptide for 48 hrs and then expanded and rested in IL-2 for an additional 5 days to generate previously activated CD4^+ cells. After measuring the baseline bioenergetics of these resting CD4^+ cells, cells were re-stimulated with anti-CD3/CD28 (FIG. 9A and FIG. 9B). […] Upon reaching the peak of glycolytic flux, metabolic reprogramming agents were administered to the cells. 2-DG is a glucose analog that inhibits hexokinase, the first enzyme in the glycolytic pathway (Rowe et al. (2013) Nature Medicine 19(4):488-493). […] Metformin is a commonly used oral hypoglycemic that activates AMPK, inhibits mitochondrial respiratory complex I and promotes fatty acid oxidation (Buzzai et al. (2007) Cancer Research 67(14):6745-6752; El-Mir et al. (2000) The Journal of Biological Chemistry 275(1):223-228).

Data set [9] relates to CD4+ and CD8+ T cells. The data set is described as follows: T cell proliferation (eFluor 670 dilution) of splenocytes stimulated with anti-CD3. The data set is classed as cell-based, C57BL/6 mice. The conditions noted are these: anti-CD3, 72 h; DON 5 μM; 2-DG 0.6 mM; Metformin 1 mM.
Data set [10] in a line: In vitro liver microsomal stability, human microsomes.
Data set [11] in a line: In vitro liver microsomal stability, pig microsomes. In general terms: Liver microsomes are a subcellular fraction often used to study metabolism.
Data set [12] relates to mouse model of Pulmonary Fibrosis. As to the kind of experiment: Mouse model of pulmonary fibrosis (intratracheal bleomycin). The arrangement: species or system mice. The following applies: in vivo. The protocol: Mice were treated with intratracheal bleomycin to induce fibrosis.
For data set [13], the system named is antigen-specific CD8+ T cells. The data set is classed as in vivo, mice. The following applies: DON added to 2DG+Metformin therapy.
Data set [14] deals with cerebral malaria. As to the kind of experiment: Cerebral malaria in mice. Type of data set: in vivo. The conditions noted are these: treated on day 5 post infection and on day 6, every other day. The protocol: FIG. 19A and FIG. 19B show the targeting of glutamine metabolism to cure Cerebral malaria. Mice were treated on day 5 post infection and on day 6 (12 hours before subsequent death) with DON every other day.

Data set [15] relates to Balb/c to C57BL/6 skin allograft. The data set is described as follows: Murine skin transplantation (Balb/c to C57BL/6). Type of data set: in vivo, mice.
The test system of data set [16] is mouse model of Acute Respiratory Distress Syndrome (ARDS). The data set is described as follows: Mouse model of acute respiratory distress syndrome (ARDS). The data set is classed as in vivo, mice. The following applies: treated on day 2 & 4. An excerpt: FIG. 17A, FIG. 17B, and FIG. 17C show targeting glutamine in a mouse model of acute respiratory distress syndrome (ARDS). Mice were challenged with Ips (FIG. 17A) to induce ARDS and treated with DON on day 2 & 4.

The test system of data set [17] is antigen-specific CD4+ T cells. Type of data set: in vivo, mice.
For data set [18], the system named is arthritis in a mouse model. The data set is described as follows: Arthritis mouse model. The following applies: in vivo.
For data set [19], the system named is Balb/c to C57BL/6 heart allograft. The data set is described as follows: Murine heterotopic heart transplantation (Balb/c to C57BL/6). The arrangement: species or system mice. The conditions noted are these: mouse, in vivo. The protocol: Murine heterotopic heart transplantation: BALB/c mice served as heart donors and C57BL/6 mice serve as allograft recipients. Either abdominal or cervical heterotopic heart transplantation was performed according to previously published methods (Corry et al. (1973) Transplantation 16(4):343-350; Oberhube et al. (2014) J Vis Exp 92:e50753). Functionality of the transplanted heart was monitored daily by palpation. Clinical rejection was defined by cessation of palpable heartbeats and confirmed by autopsy. Loss of graft function within 48 hrs of transplantation was considered as a technical failure, and animals in which this occurred were omitted from the analysis.
Finally, this metabolic reprogramming therapy with at least three metabolic reprogramming agents was employed in a Balb/c to C57BL/6 heart transplantation, which is a vascularized solid organ transplantation model. Strikingly, when recipient mice were treated with metabolic reprogramming therapy with at least three metabolic reprogramming agents, the grafted hearts continued beating for more than 100 days post-transplantation without rejection (FIG. 15F).

The subject of data set [20] is pneumonitis in a mouse model. The data set is described as follows: Pneumonitis mouse model. The following applies: in vivo.
Data set [21] concerns glutaminase. The data set is described as follows: Glutaminase activity analysis of activated CD4+ T cells (radiolabeled assay). The following applies: anti-CD3/CD28, 24 hrs; DON 5 μM. Type of data set: cell-based, mice. The protocol: Glutaminase activity analysis: Glutaminase activity measurement was adapted from previously described protocols (Thomas et al. (2013) Biochemical and Biophysical Research Communications 438(2):243-248). Briefly, T cells were lysed in ice-cold potassium phosphate buffer (45 mM, pH 8.2) containing protease inhibitors (Roche, Complete Protease Inhibitor Cocktail, 1 tablet in 50 ml) and incubated with 3H-glutamine (0.03 μM, 0.91 μCi) for 90 min at room temperature. The reactions were carried out in 50 μl reaction volumes in a 96-well microplate. At the end of the reaction period, the assay was terminated upon the addition of imidazole buffer (20 mM, pH 7). 96-well spin columns packed with strong anion ion-exchange resin (Bio-Rad, AG® 1-X2 Resin, 200-400 mesh, chloride form) were used to separate the substrate and the reaction product. Unreacted ^3H-glutamine was removed by washing with imidazole buffer. ^3H-glutamate, the reaction product, was then eluted with 0.1 N HCl and analyzed for radioactivity using Perkin Elmer's TopCount instrument in conjunction with their 96-well LumaPlates. […]

Molecules are shown by their SMILES.

Consider `CC(C)OC(=O)[C@H](CCC(=O)C=[N+]=[N-])NC(=O)O[C@H](C)OC(=O)C(C)(C)C` (single isomer, unassigned) [Compound 14b], for which the “CSF-to-plasma ratio of DON” value in [1] was “increased CSF-to-plasma ratios”. Moreover, the “amount of DON delivered to the CSF relative to DON” value in data set [1] is given as “substantially higher amounts of DON”. The plasma stability result in data set [2] is “rapidly metabolized”; in [3] it was “stable”; in [4] it was “stable”; in [5], “stable”; in [6] it was “stable”.

Regarding `O=CC[C@@H](O)[C@H](O)[C@H](O)CO` [Compound 2-DG, 2-deoxy-D-glucose], the “IFN-γ (cytokine) production” value in data set [7] was “inhibited T cell proliferation and cytokine production in a dose-dependent manner”. In data set [8], the “ECAR (glycolytic flux) of activated T cells” value (shortened to “ECAR (glycolytic flux)”) is given as “sharp decrease” and the “OCR (OXPHOS) of activated T cells” value is reported as “insignificant increase”. The T cell proliferation result in data set [9] was “inhibited T cell proliferation and cytokine production in a dose-dependent manner”.

On to `CC(C)C[C@H](N)C(=O)N[C@@H](CCC(=O)C=[N+]=[N-])C(=O)OC(C)C` [Compound 9], for which the liver microsomal stability entry in data set [10] and in data set [11] was “moderate-high stability” each time.

`CC(C)OC(=O)[C@H](CCC(=O)C=[N+]=[N-])NC(=O)[C@@H](N)Cc1c[nH]c2ccccc12` [Compound 38a]: the liver microsomal stability entry in data set [10] and in [11] was “moderate-high stability” in each case.

Take `CC(C)OC(=O)[C@H](CCC(=O)C=[N+]=[N-])NC(=O)OC(OC(=O)C(C)(C)C)c1ccccc1` (some centres unmarked) [Compound 47]: in data set [1], the “CSF-to-plasma ratio of DON” value is recorded as “increased CSF-to-plasma ratios” and the “amount of DON delivered to the CSF relative to DON” value was “substantially higher amounts of DON”.

As to `CC(=O)N[C@@H](Cc1c[nH]c2ccccc12)C(=O)N[C@@H](CCC(=O)C=[N+]=[N-])C(=O)OC(C)C` [Compound 60a], the liver microsomal stability result in [10] and in [11] was “moderate-high stability” each time.

As for `[N-]=[N+]=CC(=O)CC[C@H](N)C(=O)O` [DON, 6-Diazo-5-oxo-L-norleucine], in data set [12], the lung damage result is “markedly decreased lung damage” and the “recruitment/generation of lung fibrocytes” value is listed as “decrease in the recruitment/generation of lung fibrocytes”. In addition, the “CD8+ T cell effector function” value in data set [13] was “very potent inhibition”. Besides, the “death (survival)” value in data set [14] is on record as “prevent death at such a late stage of disease”. In addition, in [7], the “IFN-γ (cytokine) production” value is “decreased”. The “skin allograft rejection / graft survival” value in data set [15] (fully MHC-mismatched) was “prevents transplant rejection and prolongs skin graft survival”. Further, the “skin graft median survival time (MST)” value in data set [15] (treatment from day 0 until rejection, no treatment 11 days) is listed as 22 days. Further, in [8], the “ECAR (glycolytic flux)” value is given as “did not have an obvious impact” and the “OCR (OXPHOS) of activated T cells” value is “did not have an obvious impact”. Moreover, in data set [16], the lung damage result is reported as “less lung damage” and the “recovery (weight gain)” value is recorded as “more rapid recovery (weight gain)”. For the same compound, in [17] (DON added to 2DG+Metformin therapy), the “CD4+ T cell effector function” value was “very potent inhibition”. Moreover, in data set [17] (relative frequency), the “frequency of Foxp3+ CD4+ T cells (Tregs) in vivo” value was “increased the relative frequency of regulatory T cells”. The arthritis entry in [18] is listed as “treated arthritis”. In addition, the “heart transplant rejection” value in data set [19] is listed as “able to prevent heart transplant rejection”. For the same compound, in [20], the pneumonitis result is recorded as “treated pneumonitis”. For the same compound, in data set [21], the “glutaminase activity of activated T cells” value is listed as “significantly abrogated”. For the same compound, in data set [9], the T cell proliferation result is listed as “decreased”.

For the compound `CN(C)C(=N)N=C(N)N` [metformin], the “IFN-γ (cytokine) production” value in data set [7] is “inhibited T cell proliferation and cytokine production in a dose-dependent manner”. Also, in [8], the “ECAR (glycolytic flux)” value is reported as “increase” and the “OCR (OXPHOS) of activated T cells” value is “marked suppression”. Besides, the T cell proliferation result in data set [9] was “inhibited T cell proliferation and cytokine production in a dose-dependent manner”.

The values above are taken from patent US10568868B2, “Methods and compositions for treating metabolic reprogramming disorders” (THE JOHNS HOPKINS UNIVERSITY, priority 2015, dated 2020).
